Experimental data: PubChem BioAssay AID328 (DTP/NCI, 2004)
Values joined by “and” are separate entries in the source; they are usually repeats but may differ in a detail not shown here. Equal entries are not always repeated. Toxic doses and inconclusive results are not listed. The calls were made as follows: active = survival T/C of 150% or more; inactive = T/C below 125% in these data.

System: BDF1 mice, P388 leukemia ip, median survival T/C
Assay: NCI In Vivo Anticancer Drug Screen. Data for tumor model P388 Leukemia (intraperitoneal) in B6D2F1 (BDF1) mice
Conditions: endpoint: median survival time, higher = longer survival
Summary of the method: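 Steps: implant the tumour, treat one group with compound and another with vehicle, record survival, then divide treated by control.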

[1] = dose: 25.0 mg/kg/injection, schedule: Q01DX009 (ip), vehicle: water
[2] = dose: 50.0 mg/kg/injection, schedule: Q01DX009 (ip), vehicle: water
[3] = dose: 50.0 mg/kg/injection, schedule: Q04DX003 (ip), vehicle: water
[4] = dose: 100.0 mg/kg/injection, schedule: Q04DX003 (ip), vehicle: water
[5] = dose: 200.0 mg/kg/injection, schedule: Q04DX003 (ip), vehicle: water
[6] = dose: 400.0 mg/kg/injection, schedule: Q04DX003 (ip), vehicle: water
[7] = dose: 100.0 mg/kg/injection, schedule: Q01DX009 (ip), vehicle: saline with Tween-80
[8] = dose: 200.0 mg/kg/injection, schedule: Q01DX009 (ip), vehicle: Klucel (hydroxypropylcellulose) (HPC)
[9] = dose: 200.0 mg/kg/injection, schedule: Q01DX009 (ip), vehicle: saline with Tween-80
[10] = dose: 100.0 mg/kg/injection, schedule: Q01DX009 (ip), vehicle: saline
[11] = dose: 100.0 mg/kg/injection, schedule: Q04DX003 (ip), vehicle: saline with Tween-80
[12] = dose: 200.0 mg/kg/injection, schedule: Q04DX003 (ip), vehicle: saline with Tween-80
[13] = dose: 400.0 mg/kg/injection, schedule: Q01DX009 (ip), vehicle: saline with Tween-80
[14] = dose: 400.0 mg/kg/injection, schedule: Q04DX003 (ip), vehicle: saline with Tween-80

Measured: T/C

COc1ccc(/C=C/C(=O)c2ccc(OC)c(OCc3ccccc3)c2)cc1OC
inactive: [1] 97 % of control | [2] 100 % of control and 121 % of control | [3] 100 % of control | dose: 100.0 mg/kg/injection, schedule: Q01DX009 (ip), vehicle: water 100 % of control and 111 % of control | [4] 94 % of control | dose: 200.0 mg/kg/injection, schedule: Q01DX009 (ip), vehicle: water 95 % of control and 101 % of control | [5] 86 % of control | dose: 400.0 mg/kg/injection, schedule: Q01DX009 (ip), vehicle: water 97 % of control | [6] 88 % of control | dose: 600.0 mg/kg/injection, schedule: Q01DX009 (ip), vehicle: water 91 % of control

CC(C)(C)OC(=O)N/N=C1\CC2CCC1C2 (configuration not stated)
inactive: dose: 6.25 mg/kg/injection, schedule: Q01DX009 (ip), vehicle: saline with Tween-80 96 % of control | dose: 12.5 mg/kg/injection, schedule: Q01DX009 (ip), vehicle: saline with Tween-80 96 % of control | dose: 13.75 mg/kg/injection, schedule: Q04DX003 (ip), vehicle: Klucel (hydroxypropylcellulose) (HPC) 95 % of control | dose: 25.0 mg/kg/injection, schedule: Q01DX009 (ip), vehicle: saline with Tween-80 100 % of control | dose: 27.5 mg/kg/injection, schedule: Q04DX003 (ip), vehicle: Klucel (hydroxypropylcellulose) (HPC) 100 % of control | dose: 35.0 mg/kg/injection, schedule: Q01DX009 (ip), vehicle: Klucel (hydroxypropylcellulose) (HPC) 105 % of control | dose: 55.0 mg/kg/injection, schedule: Q01DX009 (ip), vehicle: Klucel (hydroxypropylcellulose) (HPC) 100 % of control | dose: 55.0 mg/kg/injection, schedule: Q04DX003 (ip), vehicle: Klucel (hydroxypropylcellulose) (HPC) 100 % of control | dose: 80.0 mg/kg/injection, schedule: Q04DX003 (ip), vehicle: Klucel (hydroxypropylcellulose) (HPC) 105 % of control | dose: 125.0 mg/kg/injection, schedule: Q04DX003 (ip), vehicle: Klucel (hydroxypropylcellulose) (HPC) 110 % of control

O=S(=O)(c1ccccc1)N1CN2CCN(C2)C1
inactive: dose: 50.0 mg/kg/injection, schedule: Q01DX009 (ip), vehicle: saline with Tween-80 107 % of control | [7] 124 % of control

CCOC(=O)C(C(=O)OCC)C1C=CCC1 (configuration not stated)
inactive: dose: 100.0 mg/kg/injection, schedule: Q01DX009 (ip), vehicle: Klucel (hydroxypropylcellulose) (HPC) 100 % of control | dose: 100.0 mg/kg/injection, schedule: Q04DX003 (ip), vehicle: Klucel (hydroxypropylcellulose) (HPC) 95 % of control | [8] 104 % of control | dose: 200.0 mg/kg/injection, schedule: Q04DX003 (ip), vehicle: Klucel (hydroxypropylcellulose) (HPC) 116 % of control | dose: 400.0 mg/kg/injection, schedule: Q01DX009 (ip), vehicle: Klucel (hydroxypropylcellulose) (HPC) 109 % of control | dose: 400.0 mg/kg/injection, schedule: Q04DX003 (ip), vehicle: Klucel (hydroxypropylcellulose) (HPC) 100 % of control

CN(C)c1nc(N(C)C)nc(N(C)C)n1
inactive: dose: 18.8 mg/kg/injection, schedule: Q01DX010 (ip), vehicle: saline 100 % of control | dose: 20.0 mg/kg/injection, schedule: Q01DX009 (ip), vehicle: Klucel (hydroxypropylcellulose) (HPC) 95 % of control | dose: 20.0 mg/kg/injection, schedule: Q01DX009 (ip), vehicle: saline with Tween-80 104 % of control | dose: 25.0 mg/kg/injection, schedule: Q01DX001 (ip), vehicle: Klucel (hydroxypropylcellulose) (HPC) 100 % of control | dose: 25.0 mg/kg/injection, schedule: Q04DX002 (ip), vehicle: Klucel (hydroxypropylcellulose) (HPC) 101 % of control and 107 % of control | dose: 25.0 mg/kg/injection, schedule: Q04DX003 (ip), vehicle: Klucel (hydroxypropylcellulose) (HPC) 96 % of control and 100 % of control | dose: 37.5 mg/kg/injection, schedule: Q01DX010 (ip), vehicle: saline 100 % of control and 110 % of control | dose: 40.0 mg/kg/injection, schedule: Q01DX009 (ip), vehicle: Klucel (hydroxypropylcellulose) (HPC) 100 % of control | dose: 40.0 mg/kg/injection, schedule: Q01DX009 (ip), vehicle: saline with Tween-80 113 % of control | dose: 59.0 mg/kg/injection, schedule: Q01DX009 (ip), vehicle: saline with Tween-80 107 % of control | dose: 75.0 mg/kg/injection, schedule: Q01DX010 (ip), vehicle: saline 100 % of control and 115 % of control | dose: 80.0 mg/kg/injection, schedule: Q01DX009 (ip), vehicle: Klucel (hydroxypropylcellulose) (HPC) 90 % of control | dose: 80.0 mg/kg/injection, schedule: Q01DX009 (ip), vehicle: saline with Tween-80 99 % of control | dose: 89.0 mg/kg/injection, schedule: Q01DX009 (ip), vehicle: saline with Tween-80 107 % of control | dose: 133.0 mg/kg/injection, schedule: Q01DX009 (ip), vehicle: saline with Tween-80 115 % of control | dose: 150.0 mg/kg/injection, schedule: Q01DX010 (ip), vehicle: saline 100 % of control and 104 % of control | dose: 160.0 mg/kg/injection, schedule: Q01DX009 (ip), vehicle: Klucel (hydroxypropylcellulose) (HPC) 104 % of control | [9] 107 % of control

O=[N+]([O-])c1cccc(OCCCOc2ccccc2)c1
inactive: dose: 100.0 mg/kg/injection, schedule: Q01DX009 (ip), vehicle: other 100 % of control | dose: 100.0 mg/kg/injection, schedule: Q04DX003 (ip), vehicle: other 110 % of control | dose: 200.0 mg/kg/injection, schedule: Q01DX009 (ip), vehicle: other 100 % of control | dose: 200.0 mg/kg/injection, schedule: Q04DX003 (ip), vehicle: other 110 % of control | dose: 400.0 mg/kg/injection, schedule: Q01DX009 (ip), vehicle: other 100 % of control | dose: 400.0 mg/kg/injection, schedule: Q04DX003 (ip), vehicle: other 100 % of control

C=CCCC(=O)OC(C)(C)C
inactive: dose: 12.5 mg/kg/injection, schedule: Q01DX009 (ip), vehicle: water 103 % of control | dose: 25.0 mg/kg/injection, schedule: Q01DX009 (ip), vehicle: saline 109 % of control | [1] 100 % of control | dose: 25.0 mg/kg/injection, schedule: Q04DX003 (ip), vehicle: water 106 % of control | [2] 100 % of control | [3] 116 % of control | [10] 109 % of control | [4] 114 % of control | [5] 98 % of control | dose: 400.0 mg/kg/injection, schedule: Q01DX009 (ip), vehicle: saline 100 % of control | [6] 114 % of control

NC(=O)CC1=NCCc2ccccc21
inactive: dose: 50.0 mg/kg/injection, schedule: Q01DX009 (ip), vehicle: saline 95 % of control | dose: 50.0 mg/kg/injection, schedule: Q04DX003 (ip), vehicle: saline 100 % of control | [10] 91 % of control | dose: 100.0 mg/kg/injection, schedule: Q04DX003 (ip), vehicle: saline 100 % of control | dose: 200.0 mg/kg/injection, schedule: Q01DX009 (ip), vehicle: saline 91 % of control | dose: 200.0 mg/kg/injection, schedule: Q04DX003 (ip), vehicle: saline 113 % of control

O=c1[nH]c(=O)[nH]c(=O)[nH]1
inactive: dose: 75.0 mg/kg/injection, schedule: Q01DX009 (ip), vehicle: Klucel (hydroxypropylcellulose) (HPC) 120 % of control | dose: 150.0 mg/kg/injection, schedule: Q01DX009 (ip), vehicle: Klucel (hydroxypropylcellulose) (HPC) 120 % of control | dose: 300.0 mg/kg/injection, schedule: Q01DX009 (ip), vehicle: Klucel (hydroxypropylcellulose) (HPC) 110 % of control

O=C(/C=C/c1ccc([N+](=O)[O-])cc1)c1ccc(Cl)cc1
inactive: [7] 90 % of control | [11] 95 % of control | [9] 90 % of control | [12] 90 % of control | [13] 100 % of control | [14] 100 % of control

C1=CC2(OCCO2)C2CC=CC3(OCCO3)C2C1 (configuration not stated)
inactive: dose: 12.5 mg/kg/injection, schedule: Q01DX009 (ip), vehicle: Klucel (hydroxypropylcellulose) (HPC) 114 % of control | dose: 25.0 mg/kg/injection, schedule: Q01DX009 (ip), vehicle: Klucel (hydroxypropylcellulose) (HPC) 110 % of control and 123 % of control | [8] 117 % of control

COc1cc(/C=N/N2CCCCC2)cc(OC)c1OC
inactive: [7] 100 % of control | [11] 100 % of control | [9] 90 % of control | [12] 100 % of control | [13] 100 % of control | [14] 90 % of control
